Results reported in article PMC7822874, “Chemoprotective antimalarials identified through quantitative high-throughput screening of Plasmodium blood and liver stage parasites” (Scientific Reports, 2021).

How the values were obtained:
in vitro = conditions: human, n = 1
[1] = system: Plasmodium falciparum Dd2 asexual blood stage parasites; test: microbe, parasite or virus in culture; parameters: species or system Plasmodium falciparum Dd2 in human erythrocytes; single determination (one 11-point concentration-response curve); conditions: Plasmodium falciparum, DD2, Erythrocyte, 72 h; read-out: AC50

Question: With `O=C(Oc1c(CN2CCOCC2)cc(Cl)c2cccnc12)c1ccccc1Br` [MLS000770987-01] as the compound, how does the CC50 at 48 h (in vitro; HepG2 cells) read?
Answer: 19.3 µM

Question: What about the AC50 [1] of the same compound?
Answer: 7.5 µM

Question: Which CC50 at 48 h (in vitro; HepG2 cells) does the source give for `COc1ccccc1Nc1c2c(nc3ccc(NC(=O)/C=C/c4cccc(OC)c4OC)cc13)CCCC2` [NCGC00104013-01] here?
Answer: 30.6 µM

Question: What about the AC50 [1] of the same compound?
Answer: 5.96 µM

Question: Which CC50 at 48 h (in vitro; HepG2 cells) does the source give for `O=C(Cc1ccccc1F)N1CC(Oc2ccc(-c3noc(-c4cccnc4)n3)cc2)C1` [NCGC00458031-01] here?
Answer: 19.3 µM

Question: With `CCCCOCc1cc(CN2CCN(c3cccc(Cl)c3)CC2)c(O)c2ncccc12` [NCGC00114972-01] as the compound, how does the CC50 at 48 h (in vitro; HepG2 cells) read?
Answer: 17.2 µM

Question: What about the AC50 [1] of the same compound?
Answer: 6.68 µM

Question: For `COc1ccc(Nc2nc(N3CCCCC3)c3ccccc3n2)cc1` [MLS000569818-01], which CC50 at 48 h (in vitro; HepG2 cells) is on record?
Answer: 30.6 µM

Question: Which CC50 at 48 h (in vitro; HepG2 cells) does the source give for `COC1=CC=CC(=CNNc2cc(N3CCOCC3)ncn2)C1=O` [MLS001202693-01] here?
Answer: 12.2 µM

Question: For `O=C1NC2(CCCN(Cc3ccccn3)C2)COc2ccccc21` (stereo not drawn) [NCGC00477540-01], which CC50 at 48 h (in vitro; hepg2) is on record?
Answer: 3.14 µM

Question: And the AC50 [1]?
Answer: 4.85 µM

Question: Which CC50 at 48 h (in vitro; HepG2 cells) does the source give for `CCCC(=O)NC(c1ccc(C(C)C)cc1)c1ccc2cccnc2c1O` (stereo not drawn) [MLS001211083-01] here?
Answer: 12.2 µM

Question: And the AC50 [1]?
Answer: 13.3 µM

Question: Which CC50 at 48 h (in vitro; HepG2 cells) does the source give for `O=C(Nc1cc(C(F)(F)F)cc(C(F)(F)F)c1)Nc1cnn(-c2ccc([N+](=O)[O-])cc2)c1C(F)(F)F` [MLS000851511-01] here?
Answer: 10.9 µM

Question: And the AC50 [1]?
Answer: 6.68 µM

Question: For `COc1cccc(C(NC(C)=O)c2ccc3cccnc3c2O)c1` (stereo not drawn) [MLS001204096-01], which CC50 at 48 h (in vitro; HepG2 cells) is on record?
Answer: 12.2 µM

Question: What about the AC50 [1] of the same compound?
Answer: 4.22 µM

Question: For `O=C(Nc1ccc(Cl)cc1)c1nc2c(o1)CCN(Cc1cccc(O)c1)CC2` [NCGC00413336-01], which CC50 at 48 h (in vitro; HepG2 cells) is on record?
Answer: 17.7 µM

Question: Which CC50 at 48 h (in vitro; HepG2 cells) does the source give for `CC(NNC(=O)C12CCC(C)(C(=O)O1)C2(C)C)=C1C=CC=CC1=O` (stereo not drawn) [MLS000778293-01] here?
Answer: 12.2 µM

Question: With `O=C1C=CC(Cl)=CC1=CNNC(=O)c1ccncc1` [MLS000766661-01] as the compound, how does the CC50 at 48 h (in vitro; HepG2 cells) read?
Answer: 12.2 µM

Question: Which CC50 at 48 h (in vitro; HepG2 cells) does the source give for `O=C1C=CC(Br)=CC1=CNNC(=O)c1ccncc1` [MLS000778139-01] here?
Answer: 12.2 µM

Question: And the AC50 [1]?
Answer: 9.44 µM

Question: Which CC50 at 48 h (in vitro; HepG2 cells) does the source give for `COc1cnc(-c2ccccn2)nc1Sc1ccc(Cl)cc1` [MLS000325700-01] here?
Answer: 24.3 µM

Question: What about the AC50 [1] of the same compound?
Answer: 5.96 µM

Question: For `CCCCC(=O)NC(c1ccc(Cl)cc1Cl)c1ccc2cccnc2c1O` (stereo not drawn) [MLS001212967-01], which CC50 at 48 h (in vitro; HepG2 cells) is on record?
Answer: 21.7 µM

Question: For `COc1ccccc1N1CCN(C[C@@H]2C=C(C)[C@H](Cc3nnc(-c4cncn4C)o3)C[C@H]2C(C)C)CC1` [NCGC00392622-01], which CC50 at 48 h (in vitro; HepG2 cells) is on record?
Answer: 24.3 µM

Question: What about the AC50 [1] of the same compound?
Answer: 10.6 µM

Question: With `COc1ccccc1CNC[C@@H]1C=C(C)[C@H](Cc2nc3cccc(C)c3[nH]2)C[C@H]1C(C)C` [NCGC00392078-01] as the compound, how does the CC50 at 48 h (in vitro; HepG2 cells) read?
Answer: 44.4 µM

Question: And the AC50 [1]?
Answer: 9.68 µM

Question: Which results are given for `O=C(Nc1nc(-c2ccccn2)cs1)c1ccc(F)c(S(=O)(=O)N2CCOCC2)c1` [MLS002162137-01]?
Answer: CC50 at 48 h (in vitro; HepG2 cells): 10.9 µM; AC50 [1]: 2.11 µM

Question: For `Cc1cc(O)c(-c2cc(C(=O)Nc3ccc(S(=O)(=O)N4CCOCC4)cc3)[nH]n2)cc1C` [MLS000042703-01], which CC50 at 48 h (in vitro; HepG2 cells) is on record?
Answer: 27.3 µM

Question: What about the AC50 [1] of the same compound?
Answer: 1.68 µM

Question: With `COc1cc(OC)cc(C(=O)Oc2c(CN3CCOCC3)cc(Cl)c3cccnc23)c1` [MLS000770997-01] as the compound, how does the CC50 at 48 h (in vitro; HepG2 cells) read?
Answer: 12.2 µM

Question: Which CC50 at 48 h (in vitro; hepg2) does the source give for `CC1CCN(S(=O)(=O)c2ccc3c(c2)C(=NO)c2cc(S(=O)(=O)N4CCC(C)CC4)ccc2-3)CC1` [MLS000551434-01] here?
Answer: 21.7 µM

Question: What about the AC50 [1] of the same compound?
Answer: 1.68 µM

Question: For `CC1=C[C@@H](CN2CCN(c3ccccn3)CC2)[C@H](C(C)C)C[C@H]1Cc1nnc(C)o1` [NCGC00392770-01], which CC50 at 48 h (in vitro; HepG2 cells) is on record?
Answer: 35.3 µM

Question: For `O=C(NCC1CC1)c1nc2c(o1)CCN(Cc1cccc(F)c1)CC2` [NCGC00413365-01], which CC50 at 48 h (in vitro; HepG2 cells) is on record?
Answer: 44.4 µM

Question: What does the source list for `CCN(CC)[S+](=O)([O-])c1ccc(NC(=O)CCc2c(C)nc3cc(-c4ccc(Cl)cc4)nn3c2C)cc1` [NCGC00110055-01]?
Answer: CC50 at 48 h (in vitro; HepG2 cells): 27.3 µM; AC50 [1]: 4.73 µM

Question: Which CC50 at 48 h (in vitro; HepG2 cells) does the source give for `COCCN1Cc2ccc(NCC(C)C)nc2C(C)(C(=O)Nc2cccc(F)c2)C1` (stereo not drawn) [NCGC00414615-01] here?
Answer: 35.3 µM

Question: Which results are given for `COc1ccc(C2C=C(c3ccc(F)cc3)Nc3nc(-c4ccc(Cl)cc4)nn32)cc1` (stereo not drawn) [NCGC00100513-01]?
Answer: CC50 at 48 h (in vitro; HepG2 cells): 27.3 µM; AC50 [1]: 0.75 µM

Question: For `Cc1ccc(Nc2nc3nonc3nc2Nc2cccc(C(F)(F)F)c2)cc1Cl` [NCGC00117632-01], which CC50 at 48 h (in vitro; HepG2 cells) is on record?
Answer: 4.32 µM

Question: What about the AC50 [1] of the same compound?
Answer: 2.11 µM
